Assay results from patent US7435736B2, “Substituted 1-piperidin-4-yl-4-azetidin-3-yl-piperazine derivatives and their use as neurokinin antagonists” (Janssen Pharmaceutica, N.V., priority 2002, dated 2008).

Experiments:
[1] = target: h-NK1 (Homo sapiens, UniProt P25103); assay: Signal transduction (ST), intracellular Ca++ FLIPR, NK1 antagonistic activity; format: cell-based; settings: read-out: pIC50 h-NK1 (converted)
Description: (§1) This test evaluates in vitro functional NK1, NK2 and NK3 antagonistic activity. For the measurements of intracellular Ca^++ concentrations the cells were grown on 96-well (black wall/transparent bottom) plates from Costar for 2 days until they reached confluence. The cells were loaded with 2 μM Fluo3 in DMEM containing 0.1% BSA and 2.5 mM probenecid for 1 h at 37° C. They were washed 3× with a Krebs buffer (140 mM NaCl, 1 mM MgCl2×6H2O, 5 mM KCl, 10 mM glucose, 5 mM HEPES; 1.25 mM CaCl2; pH 7.4) containing 2.5 mM probenecid and 0.1% BSA (Ca^++-buffer). The cells were preincubated with a concentration range of antagonists for 20 min at RT and Ca^++-signals after addition of the agonists were measured in a Fluorescence Image Plate Reader (FLIPR from Molecular Devices, Crawley, England). The peak of the Ca^++-transient was considered as the relevant signal and the mean values of corresponding wells were analysed as described below.
(§2) The sigmoidal dose response curves were analysed by computerised curve-fitting, using the GraphPad Program. The EC50-value of a compound is the effective dose showing 50% of maximal effect. For mean curves the response to the agonist with the highest potency was normalised to 100%. For antagonist responses the IC50-value was calculated using non-linear regression. […]

[2] = target: T1, h-NK3 (Homo sapiens, UniProt P29371); assay: Signal transduction (ST), intracellular Ca++ FLIPR, NK3 antagonistic activity; format: cell-based; settings: read-out: pIC50 h-NK3 (converted)
T1 sequence (P29371 1-465): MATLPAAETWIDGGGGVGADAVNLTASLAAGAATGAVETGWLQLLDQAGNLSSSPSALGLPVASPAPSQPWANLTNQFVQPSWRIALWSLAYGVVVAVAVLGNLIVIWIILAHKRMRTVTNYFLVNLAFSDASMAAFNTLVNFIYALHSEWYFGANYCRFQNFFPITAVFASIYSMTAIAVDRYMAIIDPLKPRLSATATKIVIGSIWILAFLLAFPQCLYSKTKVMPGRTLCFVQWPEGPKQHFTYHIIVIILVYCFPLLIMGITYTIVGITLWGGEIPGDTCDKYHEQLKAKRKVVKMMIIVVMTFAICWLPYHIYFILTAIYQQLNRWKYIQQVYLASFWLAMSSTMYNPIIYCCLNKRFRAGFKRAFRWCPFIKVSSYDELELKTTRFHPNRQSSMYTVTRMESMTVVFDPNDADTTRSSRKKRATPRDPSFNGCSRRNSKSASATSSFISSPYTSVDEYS
Description: as §1, §2

[3] = target: T2, h-NK2 (Homo sapiens, UniProt P21452); assay: Signal transduction (ST), intracellular Ca++ FLIPR, NK2 antagonistic activity; format: cell-based; settings: read-out: pIC50 h-NK2 (converted)
T2 sequence (P21452 1-398): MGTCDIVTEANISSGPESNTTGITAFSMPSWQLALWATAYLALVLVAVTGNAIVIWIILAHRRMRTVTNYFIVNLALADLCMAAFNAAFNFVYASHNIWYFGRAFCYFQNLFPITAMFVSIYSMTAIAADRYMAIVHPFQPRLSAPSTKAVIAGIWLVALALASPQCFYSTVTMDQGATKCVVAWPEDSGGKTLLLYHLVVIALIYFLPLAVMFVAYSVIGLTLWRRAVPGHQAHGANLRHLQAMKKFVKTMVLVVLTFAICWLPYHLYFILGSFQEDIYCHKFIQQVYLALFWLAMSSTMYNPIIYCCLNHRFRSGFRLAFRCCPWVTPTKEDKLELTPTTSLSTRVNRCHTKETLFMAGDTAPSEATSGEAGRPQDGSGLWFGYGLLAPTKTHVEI
Description: as §1, §2

[4] = test system: NK1 agonist-induced vocalisation response; settings: guinea-pigs; cited from earlier work
[5] = test system: schizophrenic patients; settings: without affecting negative symptoms; cited from earlier work
[6] = test system: chemotherapy- and radiation-induced sickness in cancer patients; settings: cited from earlier work; for reduction of the development of delayed emesis: >24 h; for control of the acute emetic phase: first 24 h, either or not associated with dexamethasone
[7] = test system: acute emesis; settings: administered together with dexamethasone and 5-HT3 antagonists; cited from earlier work
[8] = test system: major depression; settings: data not conclusive due to high placebo response rate; cited from earlier work
[9] = test system: cisplatin-induced emesis; settings: acute and delayed phase, animals; cited from earlier work
[10] = test system: dopamine release; settings: frontal cortex vs striatum; cited from earlier work

Chain of h-NK1 (P25103 whole entry): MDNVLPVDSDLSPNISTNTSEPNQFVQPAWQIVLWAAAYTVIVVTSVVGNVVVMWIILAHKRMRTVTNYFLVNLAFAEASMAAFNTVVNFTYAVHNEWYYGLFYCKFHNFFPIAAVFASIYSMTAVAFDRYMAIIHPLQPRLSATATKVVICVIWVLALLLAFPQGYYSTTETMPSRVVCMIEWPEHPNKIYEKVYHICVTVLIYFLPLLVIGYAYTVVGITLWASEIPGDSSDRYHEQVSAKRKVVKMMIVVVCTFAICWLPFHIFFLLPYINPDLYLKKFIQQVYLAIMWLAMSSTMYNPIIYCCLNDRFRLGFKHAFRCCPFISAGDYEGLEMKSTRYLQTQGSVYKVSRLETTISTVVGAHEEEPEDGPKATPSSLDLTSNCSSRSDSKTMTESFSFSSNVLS

IC50 [1] [nM]	IC50 [2] [nM]	IC50 [3] [nM]	SMILES	other results
204	–	–	O=C(c1ccsc1)N1CC(N2CCN(C3CCN(C(=O)c4cc(C(F)(F)F)cc(C(F)(F)F)c4)C(Cc4ccccc4)C3)CC2)C1 (stereo not drawn) [Compound 8]	–
19.5	–	–	O=C(c1ccccc1)N1CC(N2CCN(C3CCN(C(=O)c4cc(C(F)(F)F)cc(C(F)(F)F)c4)C(Cc4ccccc4)C3)CC2)C1 (stereo not drawn) [Compound 3]	–
11	5500	≥ 10000	CC(C)(C)C(=O)N1CC(N2CCN([C@H]3CCN(C(=O)c4cc(C(F)(F)F)cc(C(F)(F)F)c4)[C@H](Cc4ccccc4)C3)CC2)C1 [Compound 17]	–
10.5	4370	≥ 10000	O=C(c1ccccc1Cl)N1CC(N2CCN([C@H]3CCN(C(=O)c4cc(C(F)(F)F)cc(C(F)(F)F)c4)[C@H](Cc4ccccc4)C3)CC2)C1 [Compound 18]	–
45.7	≥ 10000	≥ 10000	O=C(c1cc(C(F)(F)F)cc(C(F)(F)F)c1)N1CCC(N2CCN(C3CN(c4cnccn4)C3)CC2)CC1Cc1ccccc1 (stereo not drawn) [Compound 19]	–
–	–	–	FC(F)(F)c1cc(CO[C@H]2CCCN[C@H]2c2ccccc2)cc(C(F)(F)F)c1 [L-733,060]	antagonism of NK1 agonist-induced vocalisation response [4]: antagonised
37.2	1820	5500	CC(C)(C)OC(=O)N1CCC[C@@H]1C(=O)N1CC(N2CCN([C@H]3CCN(C(=O)c4cc(C(F)(F)F)cc(C(F)(F)F)c4)[C@H](Cc4ccccc4)C3)CC2)C1 [Compound 22]	–
–	–	–	CN(C)CCCN1c2ccccc2CCc2ccccc21 [imipramine]	antagonism of NK1 agonist-induced vocalisation response [4]: antagonised
102	–	–	O=C(c1ccc(F)c(F)c1)N1CC(N2CCN([C@H]3CCN(C(=O)c4cc(C(F)(F)F)cc(C(F)(F)F)c4)[C@H](Cc4ccccc4)C3)CC2)C1 [Compound 5]	–
41.7	8130	≥ 10000	O=C(c1cnccn1)N1CC(N2CCN([C@H]3CCN(C(=O)c4cc(C(F)(F)F)cc(C(F)(F)F)c4)[C@H](Cc4ccccc4)C3)CC2)C1 [Compound 20]	–
22.9	631	3980	CC(C(=O)N1CC(N2CCN([C@H]3CCN(C(=O)c4cc(C(F)(F)F)cc(C(F)(F)F)c4)[C@H](Cc4ccccc4)C3)CC2)C1)c1ccccc1 (stereo partly drawn) [Compound 14]	–
–	–	–	CC(=O)N(C)C1(c2ccccc2)CCN(CCC[C@]2(c3ccc(Cl)c(Cl)c3)CCCN(C(=O)c3ccccc3)C2)CC1 [SR142801]	antipsychotic activity [5]: antipsychotic activity
72.4	3470	–	Cc1cc(C(=O)N2CC(N3CCN([C@H]4CCN(C(=O)c5cc(C(F)(F)F)cc(C(F)(F)F)c5)[C@H](Cc5ccccc5)C4)CC3)C2)n(C)n1 [Compound 7]	–
43.7	≥ 10000	≥ 10000	O=C([C@H]1CCOC1)N1CC(N2CCN([C@H]3CCN(C(=O)c4cc(C(F)(F)F)cc(C(F)(F)F)c4)[C@H](Cc4ccccc4)C3)CC2)C1 [Compound 12]	–
123	–	–	O=C(c1cc(C(F)(F)F)cc(C(F)(F)F)c1)N1CCC(N2CCN(C3CNC3)CC2)CC1Cc1ccccc1 (stereo not drawn) [Compound 2]	–
–	–	–	Cc1nccn1CC1CCc2c(c3ccccc3n2C)C1=O (stereo not drawn) [ondansetron]	reduction of the development of delayed emesis [6]: poor efficacy; control of the acute emetic phase [6]: effective
–	–	–	CNCCC(Oc1ccc(C(F)(F)F)cc1)c1ccccc1 (stereo not drawn) [fluoxetine]	antagonism of NK1 agonist-induced vocalisation response [4]: antagonised
–	–	–	C[C@@H](O[C@H]1OCCN(Cc2n[nH]c(=O)[nH]2)[C@H]1c1ccc(F)cc1)c1cc(C(F)(F)F)cc(C(F)(F)F)c1 [aprepitant]	prevention of acute emesis [7]: additional effects; antidepressant effects [8]: antidepressant effects; inhibition of cisplatin-induced emesis [9]: inhibit not only the acute but also the delayed phase
32.4	1230	5500	O=C(c1cc(C(F)(F)F)cc(C(F)(F)F)c1)N1CCC(N2CCN(C3CN(S(=O)(=O)c4cccs4)C3)CC2)CC1Cc1ccccc1 (stereo not drawn) [Compound 15]	–
7.41	4900	≥ 10000	Cc1nnsc1C(=O)N1CC(N2CCN([C@H]3CCN(C(=O)c4cc(C(F)(F)F)cc(C(F)(F)F)c4)[C@H](Cc4ccccc4)C3)CC2)C1 [Compound 16]	–
49	–	–	O=C(c1cccnc1)N1CC(N2CCN([C@H]3CCN(C(=O)c4cc(C(F)(F)F)cc(C(F)(F)F)c4)[C@H](Cc4ccccc4)C3)CC2)C1 [Compound 6]	–
–	–	–	COc1ccccc1CN[C@H]1CCCN[C@H]1c1ccccc1 [CP-99,994]	inhibition of cisplatin-induced emesis [9]: inhibit not only the acute but also the delayed phase
–	–	–	CN1C2CCCC1CC(NC(=O)c1nn(C)c3ccccc13)C2 (stereo not drawn) [granisetron]	reduction of the development of delayed emesis [6]: poor efficacy; control of the acute emetic phase [6]: effective
45.7	–	–	N#Cc1cccc(C(=O)N2CC(N3CCN([C@H]4CCN(C(=O)c5cc(C(F)(F)F)cc(C(F)(F)F)c5)[C@H](Cc5ccccc5)C4)CC3)C2)c1 [Compound 4]	–
10.5	≥ 10000	≥ 10000	O=C(C1CCOC1)N1CC(N2CCN(C3CCN(C(=O)c4cc(C(F)(F)F)cc(C(F)(F)F)c4)C(Cc4ccccc4)C3)CC2)C1 (stereo not drawn) [Compound 11]	–
63.1	–	–	O=C(C1CC1)N1CC(N2CCN([C@H]3CCN(C(=O)c4cc(C(F)(F)F)cc(C(F)(F)F)c4)[C@H](Cc4ccccc4)C3)CC2)C1 [Compound 10]	–
55	–	–	O=C(c1ccoc1)N1CC(N2CCN([C@H]3CCN(C(=O)c4cc(C(F)(F)F)cc(C(F)(F)F)c4)[C@H](Cc4ccccc4)C3)CC2)C1 [Compound 9]	–
33.9	≥ 10000	≥ 10000	CC(C)(C)OC(=O)NC(C)(C)C(=O)N1CC(N2CCN([C@H]3CCN(C(=O)c4cc(C(F)(F)F)cc(C(F)(F)F)c4)[C@H](Cc4ccccc4)C3)CC2)C1 [Compound 13]	–
–	–	–	COc1ccc(C(C)C)cc1CN[C@H]1C2CCN(CC2)[C@H]1C(c1ccccc1)c1ccccc1 [CJ-11,974, Ezlopitant]	prevention of acute emesis [7]: additional effects
–	–	–	COc1ccc(-n2nnnc2C(F)(F)F)cc1CN[C@H]1CCCN[C@H]1c1ccccc1 [(S)-GR205,171]	dopamine release [10]: enhance dopamine release in the frontal cortex but not in the striatum
